Key:
barnyardgrass [1] = assay: Test B pre-/postemergence herbicide test; format: in vivo, Echinochloa crus-galli
Summary of the method: (§1)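 Pre: seeds sown, then sprayed. Post: 1–4-leaf plants (2–18 cm) sprayed at the same time. Paddy: flooded, treated at 2-leaf stage. Formulation: non-phytotoxic solvent with surfactant. Greenhouse 13–15 days; visual 0–100 score relative to controls.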

Surinam grass = assay: Test B pre-/postemergence herbicide test; format: in vivo, Urochloa decumbens
Summary of the method: (§2)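 Herbicidal effect was judged by eye on a 0–100 scale after plants stood 13 to 15 days in the greenhouse following pre- or postemergence treatment with surfactant-containing formulations.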

cocklebur = assay: Test B pre-/postemergence herbicide test; format: in vivo, Xanthium strumarium
Summary of the method: as §1

giant foxtail = assay: Test B pre-/postemergence herbicide test; format: in vivo, Setaria faberi
Summary of the method: as §2

lambsquarters = assay: Test B pre-/postemergence herbicide test; format: in vivo, Chenopodium album
Summary of the method: as §2

morningglory = assay: Test B pre-/postemergence herbicide test; format: in vivo, Ipomoea coccinea
Summary of the method: as §1

pigweed = assay: Test B pre-/postemergence herbicide test; format: in vivo, Amaranthus retroflexus
Summary of the method: as §2

velvetleaf = assay: Test B pre-/postemergence herbicide test; format: in vivo, Abutilon theophrasti
Summary of the method: as §2

blackgrass = assay: Test B postemergence herbicide test; format: in vivo, Alopecurus myosuroides; settings: for Blackgrass plant response rating: postemergence
Summary of the method: (§3)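 Read-out: visual comparison with controls, scored 0 to 100, where 100 means complete control and 0 no effect. Formulated chemicals were applied postemergence to plants 2–18 cm tall (1- to 4-leaf), or to flooded-paddy plants at the 2-leaf stage, then held 13 to 15 days under glass.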

wheat = assay: Test B postemergence herbicide test; format: in vivo, Triticum aestivum; set-up: key to Wheat plant response rating: 0 = no effect, 100 = complete control; settings: for Wheat plant response rating: postemergence
Summary of the method: (§4)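 Each value is a visual 0–100 response rating taken against controls 13 to 15 days after treatment in the greenhouse. Plants received formulated chemical postemergence at the 1- to 4-leaf stage or, in flooded paddy, at the 2-leaf stage.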

wild oat = assay: Test B postemergence herbicide test; format: in vivo, Avena fatua; settings: for Oat, Wild plant response rating: postemergence
Summary of the method: as §4

rice = assay: Test B flooded paddy test; format: in vivo, Oryza sativa; settings: 1000 g ai/ha, scale 0 to 100 (0 no effect, 100 complete control)
Summary of the method: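 Treated at 2-leaf (paddy) or 1–4-leaf, 2–18 cm (postemergence); greenhouse 13–15 d; visual score vs control, 0 none to 100 complete control; dash = not tested.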

[2] = tested on: small flower umbrella sedge; assay: Test B flooded paddy test; format: in vivo, Cyperus difformis; settings: 1000 g ai/ha, scale 0 to 100 (0 no effect, 100 complete control)
Summary of the method: as §3

ducksalad = assay: Test B flooded paddy test; format: in vivo, Heteranthera limosa; settings: 1000 g ai/ha, scale 0 to 100 (0 no effect, 100 complete control)
Summary of the method: as §3

barnyardgrass [3] = assay: Test B flooded paddy test; format: in vivo, Echinochloa crus-galli; settings: 1000 g ai/ha, scale 0 to 100 (0 no effect, 100 complete control)
Summary of the method: as §3

[4] = Postemergence, 500 g ai/ha, visual rating after 13 to 15 days, scale 0 (no effect) to 100 (complete control)
[5] = Preemergence, 500 g ai/ha, scale 0 to 100
[6] = postemergence, 125 g ai/ha, visual rating, scale 0 (no effect) to 100 (complete control)
[7] = preemergence, 125 g ai/ha, 0 to 100 scale, 0 is no effect, 100 is complete control
[8] = 125 g ai/ha, visual rating, scale 0 (no effect) to 100 (complete control)
[9] = 125 g ai/ha, 0 = no effect, 100 = complete control, preemergence
[10] = 500 g ai/ha, visual rating, 0 = no effect, 100 = complete control, preemergence
[11] = postemergence, 500 g ai/ha, scale 0 to 100, 0 is no effect, 100 is complete control
[12] = 500 g ai/ha, scale 0 to 100, 0 is no effect, 100 is complete control

SMILES: CCCn1nc(C(C)(C)C)cc1C(=O)Nc1cccc(C(=O)NCC)c1 [Compound 57]
- Plant response rating, Barnyardgrass (barnyardgrass [1]; [4]): 20
- Barnyardgrass plant response rating (barnyardgrass [1]; [5]): 70
- Barnyardgrass plant response rating (barnyardgrass [1]; [6]): 10
- Plant response rating, Barnyardgrass (barnyardgrass [1]; [7]): 50
- Plant response rating, Surinam Grass (Surinam grass; [4]): 20
- Surinam Grass plant response rating (Surinam grass; [5]): 40
- Surinam Grass plant response rating (Surinam grass; [6]): 10
- Plant response rating, Surinam Grass (Surinam grass; [7]): 20
- Plant response rating, Cocklebur (cocklebur; [4]): 60
- Cocklebur plant response rating (cocklebur; [5]): 10
- Cocklebur plant response rating (cocklebur; [6]): 30
- Plant response rating, Cocklebur (cocklebur; [7]): 0
- Plant response rating, Foxtail, Giant (giant foxtail; [4]): 30
- Foxtail, Giant plant response rating (giant foxtail; [5]): 100
- Foxtail, Giant plant response rating (giant foxtail; [6]): 20
- Plant response rating, Foxtail, Giant (giant foxtail; [7]): 20
- Plant response rating, Lambsquarters (lambsquarters; [4]): 90
- Lambsquarters plant response rating (lambsquarters; [5]): 100
- Lambsquarters plant response rating (lambsquarters; [6]): 70
- Plant response rating, Lambsquarters (lambsquarters; [7]): 100
- Plant response rating, Morningglory (morningglory; [4]): 10
- Morningglory plant response rating (morningglory; [5]): 0
- Morningglory plant response rating (morningglory; [6]): 10
- Plant response rating, Morningglory (morningglory; [7]): 0
- Plant response rating, Pigweed (pigweed; [4]): 80
- Pigweed plant response rating (pigweed; [5]): 100
- Pigweed plant response rating (pigweed; [6]): 70
- Plant response rating, Pigweed (pigweed; [7]): 90
- Plant response rating, Velvetleaf (velvetleaf; [4]): 30
- Velvetleaf plant response rating (velvetleaf; [5]): 0
- Velvetleaf plant response rating (velvetleaf; [6]): 20
- Plant response rating, Velvetleaf (velvetleaf; [7]): 0
- Plant response rating, Blackgrass (blackgrass; [4]): 10
- Blackgrass plant response rating (blackgrass; [8]): 0
- Plant response rating, Wheat (wheat; [4]): 10
- Wheat plant response rating (wheat; [8]): 10
- Plant response rating, Oat, Wild (wild oat; [4]): 30
- Oat, Wild plant response rating (wild oat; [8]): 30
- Rice plant response rating (rice; visual rating, 13 to 15 days): 60
- Sedge, Umbrella plant response rating ([2]; visual rating, 13 to 15 days): 60
- Ducksalad plant response rating (ducksalad; visual rating, 13 to 15 days): 50
- Barnyardgrass plant response rating (barnyardgrass [3]; visual rating, 13 to 15 days): 60

SMILES: CCn1nc(C(C)(C)C)cc1C(=O)Nc1cccc(C(=O)N2CC=CC2)c1 [Compound 286]
- Barnyardgrass plant response rating (0 to 100 scale) (barnyardgrass [1]; [9]): 30
- Plant response rating, Barnyardgrass (barnyardgrass [1]; [10]): 90
- Barnyardgrass plant response rating (barnyardgrass [1]; [6]): 0
- Barnyardgrass plant response rating (barnyardgrass [1]; [11]): 0
- Surinam Grass plant response rating (0 to 100 scale) (Surinam grass; [9]): 10
- Plant response rating, Surinam Grass (Surinam grass; [10]): 60
- Surinam Grass plant response rating (Surinam grass; [6]): 10
- Surinam Grass plant response rating (Surinam grass; [11]): 20
- Cocklebur plant response rating (0 to 100 scale) (cocklebur; [9]): 0
- Plant response rating, Cocklebur (cocklebur; [10]): 0
- Cocklebur plant response rating (cocklebur; [6]): 10
- Cocklebur plant response rating (cocklebur; [11]): 20
- Foxtail, Giant plant response rating (0 to 100 scale) (giant foxtail; [9]): 10
- Plant response rating, Foxtail, Giant (giant foxtail; [10]): 90
- Foxtail, Giant plant response rating (giant foxtail; [6]): 20
- Foxtail, Giant plant response rating (giant foxtail; [11]): 50
- Lambsquarters plant response rating (0 to 100 scale) (lambsquarters; [9]): 100
- Plant response rating, Lambsquarters (lambsquarters; [10]): 100
- Lambsquarters plant response rating (lambsquarters; [6]): 10
- Lambsquarters plant response rating (lambsquarters; [11]): 70
- Morningglory plant response rating (0 to 100 scale) (morningglory; [9]): 0
- Plant response rating, Morningglory (morningglory; [10]): 0
- Morningglory plant response rating (morningglory; [6]): 0
- Morningglory plant response rating (morningglory; [11]): 0
- Pigweed plant response rating (0 to 100 scale) (pigweed; [9]): 100
- Plant response rating, Pigweed (pigweed; [10]): 100
- Pigweed plant response rating (pigweed; [6]): 60
- Pigweed plant response rating (pigweed; [11]): 100
- Velvetleaf plant response rating (0 to 100 scale) (velvetleaf; [9]): 0
- Plant response rating, Velvetleaf (velvetleaf; [10]): 60
- Velvetleaf plant response rating (velvetleaf; [6]): 10
- Velvetleaf plant response rating (velvetleaf; [11]): 60
- Blackgrass plant response rating (blackgrass; [8]): 10
- Blackgrass plant response rating (blackgrass; [12]): 20
- Wheat plant response rating (wheat; [8]): 20
- Wheat plant response rating (wheat; [12]): 30
- Oat, Wild plant response rating (wild oat; [8]): 30
- Oat, Wild plant response rating (wild oat; [12]): 40
- Rice plant response rating (rice): 70
- Sedge, Umbrella plant response rating [2]: 80
- Ducksalad plant response rating (ducksalad): 90
- Barnyardgrass plant response rating (barnyardgrass [3]): 90

From patent US20060069132A1, “Azolecarboxamide herbicides” (priority 2004, published 2006)
